melting point [°C]	SMILES
206 to 207	NC(=O)[C@H](C[C@H](O)[C@H](Cc1cccs1)NC(=O)c1cnc2ccccc2n1)C1(O)CCCCC1 [Example 268, Quinoxaline-2-carboxylic acid [4(R)-carbamoyl-2(S)-hydroxy-4-(1-hydroxy-cyclohexyl)-1(S)-thiophen-2-ylmethyl-butyl]-amide]
147 to 149	CC(C)(F)CC[C@H](C[C@H](O)[C@H](Cc1ccccc1)NC(=O)c1cnc2ccccc2n1)C(=O)NN [Example 312, Quinoxaline-2-carboxylic acid (1(S)-benzyl-7-fluoro-4(R)-hydrazinocarbonyl-2(S)-hydroxyl-7-methyl-octyl)-amide]
107 to 108	CC(C)(F)CC[C@H](C[C@H](O)[C@H](Cc1ccccc1)NC(=O)c1cnc2ccccc2n1)C(=O)NCCc1c[nH]c2ccccc12 [Example 230, Quinoxaline-2-carboxylic acid {1(S)-benzyl-7-fluoro-2(S)-hydroxy-4(R)-[2-(1H-indol-3-yl)-ethylcarbamoyl]-7-methyl-octyl}-amide]
187 to 188	CC1CCC(O)([C@H](C[C@H](O)[C@H](Cc2ccccc2)NC(=O)c2cnc3ccccc3n2)C(N)=O)C1 (stereo partly drawn) [Example 282, Quinoxaline-2-carboxylic acid [1(S)-benzyl-4(S)-carbamoyl-2(S)-hydroxy-4-(1-hydroxy-3-methyl-cyclopentyl)-butyl]-amide]
159 to 160.5	CC(C)(F)CC[C@H](C[C@H](O)[C@@H](NC(=O)c1cnc2ccccc2n1)c1ccccc1)C(N)=O [Example 266, Quinoxaline-2-carboxylic acid (4(R)-carbamoyl-7-fluoro-2(S)-hydroxy-7-methyl-1(S)-phenyl-octyl)-amide]
135	COc1ccccc1CNC(=O)[C@H](CCC(C)(C)F)C[C@H](O)[C@H](Cc1ccccc1)NC(=O)c1cnc2ccccc2n1 [Example 227, Quinoxaline-2-carboxylic acid [1(S)-benzyl-7-fluoro-2(S)-hydroxy-4(R)-(2-methoxy-benzylcarbamoyl)-7-methyl-octyl]-amide]
138 to 140	CC(C)(F)CC[C@H](C[C@H](O)[C@H](Cc1ccccc1)NC(=O)c1cnc2ccccc2n1)C(=O)NCCc1ccc(O)cc1 [Example 212, Quinoxaline-2-carboxylic acid {1(S)-benzyl-7-fluoro-2(S)-hydroxy-4(R)-[2-(4-hydroxy-phenyl)-ethylcarbamoyl]-7-methyl-octyl}-amide]
115 to 117	CCCC1CCC(O)([C@H](C[C@H](O)[C@H](Cc2ccccc2)NC(=O)c2cnc3ccccc3n2)C(=O)NO)CC1 (stereo partly drawn) [Example 301, Quinoxaline-2-carboxylic acid [1(S)-benzyl-2(S)-hydroxy-4(S)-hydroxycarbamoyl-4-(1-hydroxy-4-propyl-cyclohexyl)-butyl]-amide]
203 to 206	NC(=O)[C@H](Cc1ccccc1)C[C@H](O)[C@H](Cc1ccccc1)NC(=O)c1cnc2ccccc2c1 [Example 287, Quinoline-3-carboxylic acid (1(S)-benzyl-4(R)-carbamoyl-2(S)-hydroxy-5-phenyl-pentyl)-amide]
171 to 173	NC(=O)[C@H](Cc1ccccc1F)C[C@H](O)[C@H](Cc1ccccc1)NC(=O)c1cnc2ccccc2n1 [Example 280, Quinoxaline-2-carboxylic acid [1(S)-benzyl-4(R)-carbamoyl-5-(2-fluoro-phenyl)-2(S)-hydroxy-pentyl]-amide]
234 to 236	CC1CC(C)CC(O)([C@H](C[C@H](O)[C@H](Cc2ccccc2)NC(=O)c2cnc3ccccc3n2)C(N)=O)C1 (stereo partly drawn) [Example 288, Quinoxaline-2-carboxylic acid [1(S)-benzyl-4(S)-carbamoyl-2(S)-hydroxy-4-(1-hydroxy-3,5-dimethyl-cyclohexyl)-butyl]-amide]
130 to 132	O=C(N[C@@H](Cc1ccccc1)[C@@H](O)C[C@H](C(=O)NO)C1(O)C2CCCC1CCC2)c1cnc2ccccc2n1 (stereo partly drawn) [Example 298, Quinoxaline-2-carboxylic acid [1(S)-benzyl-2(S)-hydroxy-4(S)-(9-hydroxy-bicyclo[3.3.1]non-9-yl)-4-hydroxycarbamoyl-butyl]-amide]
230 to 233	CC1CCC(O)([C@H](C[C@H](O)[C@H](Cc2ccccc2)NC(=O)c2cnc3ccccc3n2)C(N)=O)CC1 (stereo partly drawn) [Example 278, Quinoxaline-2-carboxylic acid [1(S)-benzyl-4(S)-carbamoyl-2(S)-hydroxy-4-(1-hydroxy-4-methyl-cyclohexyl)-butyl]-amide]
114 to 115	COc1ccc(CNC(=O)[C@H](CCC(C)(C)F)C[C@H](O)[C@H](Cc2ccccc2)NC(=O)c2cnc3ccccc3n2)cc1 [Example 236, Quinoxaline-2-carboxylic acid [1(S)-benzyl-7-fluoro-2(S)-hydroxy-4(R)-(4-methoxy-benzylcarbamoyl)-7-methyl-octyl]-amide]
78 to 79	CCSCCNC(=O)[C@H](CCC(C)(C)F)C[C@H](O)[C@H](Cc1ccccc1)NC(=O)c1cnc2ccccc2n1 [Example 218, Quinoxaline-2-carboxylic acid [1(S)-benzyl-4(R)-(2-ethylsulfanyl-ethylcarbamoyl)-7-fluoro-2(S)-hydroxy-7-methyl-octyl]-amide]
250 to 252	NC(=O)[C@@H](C[C@H](O)[C@H](Cc1ccccc1)NC(=O)c1cnc2ccccc2n1)C1(O)CCC(C(F)(F)F)CC1 (stereo partly drawn) [Example 308, Quinoxaline-2-carboxylic acid [1(S)-benzyl-4(S)-carbamoyl-2(S)-hydroxy-4-(1-hydroxy-4-trifluoromethyl-cyclohexyl)-butyl]-amide]
109 to 112	COc1cc(CCNC(=O)[C@H](CCC(C)(C)F)C[C@H](O)[C@H](Cc2ccccc2)NC(=O)c2cnc3ccccc3n2)cc(OC)c1 [Example 232, Quinoxaline-2-carboxylic acid {1(S)-benzyl-4(R)-[2-(3,5-dimethoxy-phenyl)-ethylcarbamoyl]-7-fluoro-2(S)-hydroxy-7-methyl-octyl}-amide]

More lines, now with the values behind:

SMILES	melting point [°C]
CC(C)(F)CC[C@H](C[C@H](O)[C@H](Cc1ccccc1)NC(=O)c1cnc2ccccc2n1)C(=O)NCc1ccccn1 [Example 211, Quinoxaline-2-carboxylic acid {1(S)-benzyl-7-fluoro-2(S)-hydroxy-7-methyl-4(R)-[(pyridin-2-ylmethyl)-carbamoyl]-octyl}-amide]	138 to 140
CNC(=O)C[C@H](C[C@H](O)[C@H](Cc1ccccc1)NC(=O)c1cnc2ccccc2n1)C(=O)NC [Example 151, 2(S)-{2(S)-hydroxy-4-phenyl-3(S)-[(quinoxaline-2-carbonyl)-amino]-butyl}-N1,N4-dimethyl-succinamide]	178 to 180
CNC(=O)[C@H](CC1CCC(F)(F)CC1)C[C@H](O)[C@H](Cc1ccccc1)NC(=O)c1cnc2ccccc2n1 [Example 132, Quinoxaline-2-carboxylic acid [1(S)-benzyl-5-(4,4-difluoro-cyclohexyl)-2(S)-hydroxy-4(R)-methylcarbamoyl-pentyl]-amide]	170 to 172
CC(C)CC[C@H](C[C@H](O)[C@H](Cc1cscn1)NC(=O)c1cnc2ccccc2n1)C(N)=O [Example 178, Quinoxaline-2-carboxylic acid (4(R)-carbamoyl-2(S)-hydroxy-7-methyl-1(S)-thiazol-4-ylmethyl-octyl)-amide]	195 to 196
NC(=O)C1(C[C@H](O)[C@H](Cc2ccccc2)NC(=O)c2cnc3ccccc3n2)Cc2ccccc2C1 [Example 164, Quinoxaline-2-carboxylic acid [1(S)-benzyl-3-(2-carbamoyl-indan-2-yl)-2(S)-hydroxy-propyl]-amide]	90 to 100
CNC(=O)[C@H](CCC(C)(C)F)C[C@H](O)[C@H](Cc1ccc(F)cc1)NC(=O)c1cnc2ccccc2n1 [Example 154, Quinoxaline-2-carboxylic acid [7-fluoro-1(S)-(4-fluoro-benzyl)-2(S)-hydroxy-7-methyl-4(R)-methylcarbamoyl-octyl]-amide]	145 to 147
NC(=O)[C@H](Cc1ccc(F)cc1)C[C@H](O)[C@H](Cc1ccccc1)NC(=O)c1cnc2ccccc2n1 [Example 194, Quinoxaline-2-carboxylic acid [1(S)-benzyl-4(R)-carbamoyl-5-(4-fluoro-phenyl)-2(S)-hydroxy-pentyl]-amide]	164 to 166
CNC(=O)[C@H](CCC(C)C)C[C@H](O)[C@H](Cc1cccc(F)c1)NC(=O)c1cnc2ccccc2n1 [Example 134, Quinoxaline-2-carboxylic acid [1(S)-(3-fluoro-benzyl)-2(S)-hydroxy-7-methyl-4(R)-methylcarbamoyl-octyl]-amide]	158.5 to 159.5
NC(=O)[C@@H](C[C@H](O)[C@H](Cc1ccccc1)NC(=O)c1cnc2ccccc2n1)C1CCCCCC1 [Example 181, Quinoxaline-2-carboxylic acid (1(S)-benzyl-4(S)-carbamoyl-4-cycloheptyl-2(S)-hydroxy-butyl)-amide]	216 to 217
CNC(=O)[C@H](CC(C)C)C[C@H](O)[C@H](Cc1ccc(Cl)cc1)NC(=O)c1cnc2ccccc2c1 [Example 67, Quinoline-3-carboxylic acid [1(S)-(4-chloro-benzyl)-2(S)-hydroxy-6-methyl-4(R)-methylcarbamoyl-heptyl]-amide]	212.5 to 213.5
CNC(=O)[C@H](CC(C)C)C[C@H](O)[C@H](Cc1ccc(F)cc1)NC(=O)c1cnc2ccccc2n1 [Example 90, Quinoxaline-2-carboxylic acid [1(S)-(4-fluoro-benzyl)-2(S)-hydroxy-6-methyl-4(R)-methylcarbamoyl-heptyl]-amide]	153 to 156
CNC(=O)[C@H](CC(C)C)C[C@H](O)[C@H](Cc1ccc(O)cc1)NC(=O)c1cnc2ccccc2n1 [Example 65, Quinoxaline-2-carboxylic acid [2(S)-hydroxy-1(S)-(4-hydroxy-benzyl)-6-methyl-4(R)-methylcarbamoyl-heptyl]-amide]	170 to 172
CNC(=O)[C@H](CC(C)C)C[C@H](O)[C@H](Cc1ccc2ccccc2c1)NC(=O)c1cnc2ccccc2n1 [Example 127, Quinoxaline-2-carboxylic acid (2(S)-hydroxy-6-methyl-4(R)-methylcarbamoyl-1(S)-naphthalen-2-ylmethyl-heptyl)-amide]	121 to 123
